The values below come from US8822500B2, “Tyrosine kinase inhibitors” (Chembridge Corporation, priority 2008, dated 2014).

Structures are written as SMILES. pIC50: −log10 of the molar value. Where two headings read alike, the source gives them in different places.

In general, IC50 refers to the concentration at which inhibition is half-maximal. In general, pIC50 refers to −log10 of the IC50, conventionally taken in molar units. What is called microsomal CLint is the capacity of the preparation to metabolise the compound, expressed as a volume cleared per time. The term half-life denotes the time in which the quantity being followed falls by half. Higher therefore signals slow loss. The term efflux ratio denotes a quotient of directional permeabilities that is used to spot active efflux. By Papp A→B is commonly meant how fast a substance crosses the layer from the apical side. High values mean ready permeation, low ones poor permeation. Broadly, the Papp B→A is how fast a substance crosses the layer from the basolateral side.

Data set [1] deals with ROS (Homo sapiens (Human), UniProt P08922). Nature of the data set: In vitro kinase activity assay (LANCE TR-FRET). The data set is classed as biochemical. The settings on record: for IC50: read-out: ROS (nM) IC50; for pIC50: read-out: GTx-ROS IC50. A general note: In TR-FRET formats the signal depends on donor and acceptor labels being close together.
Data set [2] has as its target ALK (Homo sapiens (Human), UniProt Q9UM73). The experiment in a line: In vitro kinase activity assay (LANCE TR-FRET). The format is biochemical. The settings on record: for IC50: read-out: ALK (nM) IC50; for pIC50: read-out: GTx-ALK IC50.
The target of data set [3] is RET (Homo sapiens (Human), UniProt P07949). Nature of the data set: In vitro kinase activity assay (LANCE TR-FRET). The format is biochemical. The settings on record: for IC50: read-out: RET (nM) IC50; for pIC50: read-out: GTx-RET IC50.
The target of data set [4] is TrkA (Homo sapiens (Human), UniProt P04629). Nature of the data set: In vitro kinase activity assay (LANCE TR-FRET). The data set is classed as biochemical. Conditions: for IC50: read-out: TrkA (nM) IC50; for pIC50: read-out: GTx-TrKA IC50.
The nature of data set [5]: in vitro. The settings on record: human, microsomes.
Data set [6] relates to Caco-2 cells. Nature of the data set: Caco-2 cell permeation study.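 Also: Caco-2 monolayers grown for 21–28 days with integrity confirmed by TEER, apical buffer HBSS with MES, basolateral buffer HBSS with HEPES, compound levels quantified by LC/MS/MS.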 The format is in vitro ADME. On the technique in general: Caco-2 monolayers are a common model of the intestinal barrier.
The nature of data set [7]: Caco-2 cell permeation study.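 Also: Caco-2 monolayers grown for 21–28 days with integrity confirmed by TEER, apical buffer HBSS with MES, basolateral buffer HBSS with HEPES, compound levels quantified by LC/MS/MS.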 The format is in vitro ADME. The settings on record: human.
Data set [8] is described as follows: Rat pharmacokinetics / bioavailability. The format is in vivo.
Data set [9] can be described thus: in vitro. Conditions: rat, microsomes.
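For ALK (nM) IC50 in this document: kinase reactions with ATP and a poly-GT peptide substrate, phosphorylated product read by time-resolved FRET, 11-point curve from 10^−11 to 10^−5 M, DMSO as negative control.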
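For TrkA (nM) IC50 in this document: kinase reaction with poly-GT peptide substrate and ATP, phosphorylated product quantified by time-resolved FRET, eleven-point dose curves from 10^−11 to 10^−5 M in triplicate, DMSO as negative control.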

Chain of TrkA (P04629 33-796): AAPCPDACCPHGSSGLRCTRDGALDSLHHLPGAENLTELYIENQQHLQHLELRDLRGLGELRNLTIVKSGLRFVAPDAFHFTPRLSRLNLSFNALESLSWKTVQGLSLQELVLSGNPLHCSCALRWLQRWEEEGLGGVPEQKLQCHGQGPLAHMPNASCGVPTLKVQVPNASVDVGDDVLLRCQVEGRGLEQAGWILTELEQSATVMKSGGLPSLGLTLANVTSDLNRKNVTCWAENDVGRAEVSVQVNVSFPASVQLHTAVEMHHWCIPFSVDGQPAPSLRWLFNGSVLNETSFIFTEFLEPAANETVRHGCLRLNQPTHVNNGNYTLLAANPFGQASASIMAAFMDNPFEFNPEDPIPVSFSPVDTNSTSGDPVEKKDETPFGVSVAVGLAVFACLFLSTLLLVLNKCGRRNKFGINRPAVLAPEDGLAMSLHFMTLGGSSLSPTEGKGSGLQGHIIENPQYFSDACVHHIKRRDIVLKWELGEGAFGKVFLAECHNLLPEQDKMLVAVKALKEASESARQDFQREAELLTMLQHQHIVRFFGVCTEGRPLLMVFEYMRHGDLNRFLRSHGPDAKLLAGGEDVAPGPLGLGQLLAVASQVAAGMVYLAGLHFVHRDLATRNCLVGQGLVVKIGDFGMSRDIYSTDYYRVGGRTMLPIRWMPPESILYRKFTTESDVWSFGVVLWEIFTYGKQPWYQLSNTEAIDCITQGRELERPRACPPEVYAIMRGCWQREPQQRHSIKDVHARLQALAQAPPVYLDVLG
Chain of ALK (Q9UM73 19-1620): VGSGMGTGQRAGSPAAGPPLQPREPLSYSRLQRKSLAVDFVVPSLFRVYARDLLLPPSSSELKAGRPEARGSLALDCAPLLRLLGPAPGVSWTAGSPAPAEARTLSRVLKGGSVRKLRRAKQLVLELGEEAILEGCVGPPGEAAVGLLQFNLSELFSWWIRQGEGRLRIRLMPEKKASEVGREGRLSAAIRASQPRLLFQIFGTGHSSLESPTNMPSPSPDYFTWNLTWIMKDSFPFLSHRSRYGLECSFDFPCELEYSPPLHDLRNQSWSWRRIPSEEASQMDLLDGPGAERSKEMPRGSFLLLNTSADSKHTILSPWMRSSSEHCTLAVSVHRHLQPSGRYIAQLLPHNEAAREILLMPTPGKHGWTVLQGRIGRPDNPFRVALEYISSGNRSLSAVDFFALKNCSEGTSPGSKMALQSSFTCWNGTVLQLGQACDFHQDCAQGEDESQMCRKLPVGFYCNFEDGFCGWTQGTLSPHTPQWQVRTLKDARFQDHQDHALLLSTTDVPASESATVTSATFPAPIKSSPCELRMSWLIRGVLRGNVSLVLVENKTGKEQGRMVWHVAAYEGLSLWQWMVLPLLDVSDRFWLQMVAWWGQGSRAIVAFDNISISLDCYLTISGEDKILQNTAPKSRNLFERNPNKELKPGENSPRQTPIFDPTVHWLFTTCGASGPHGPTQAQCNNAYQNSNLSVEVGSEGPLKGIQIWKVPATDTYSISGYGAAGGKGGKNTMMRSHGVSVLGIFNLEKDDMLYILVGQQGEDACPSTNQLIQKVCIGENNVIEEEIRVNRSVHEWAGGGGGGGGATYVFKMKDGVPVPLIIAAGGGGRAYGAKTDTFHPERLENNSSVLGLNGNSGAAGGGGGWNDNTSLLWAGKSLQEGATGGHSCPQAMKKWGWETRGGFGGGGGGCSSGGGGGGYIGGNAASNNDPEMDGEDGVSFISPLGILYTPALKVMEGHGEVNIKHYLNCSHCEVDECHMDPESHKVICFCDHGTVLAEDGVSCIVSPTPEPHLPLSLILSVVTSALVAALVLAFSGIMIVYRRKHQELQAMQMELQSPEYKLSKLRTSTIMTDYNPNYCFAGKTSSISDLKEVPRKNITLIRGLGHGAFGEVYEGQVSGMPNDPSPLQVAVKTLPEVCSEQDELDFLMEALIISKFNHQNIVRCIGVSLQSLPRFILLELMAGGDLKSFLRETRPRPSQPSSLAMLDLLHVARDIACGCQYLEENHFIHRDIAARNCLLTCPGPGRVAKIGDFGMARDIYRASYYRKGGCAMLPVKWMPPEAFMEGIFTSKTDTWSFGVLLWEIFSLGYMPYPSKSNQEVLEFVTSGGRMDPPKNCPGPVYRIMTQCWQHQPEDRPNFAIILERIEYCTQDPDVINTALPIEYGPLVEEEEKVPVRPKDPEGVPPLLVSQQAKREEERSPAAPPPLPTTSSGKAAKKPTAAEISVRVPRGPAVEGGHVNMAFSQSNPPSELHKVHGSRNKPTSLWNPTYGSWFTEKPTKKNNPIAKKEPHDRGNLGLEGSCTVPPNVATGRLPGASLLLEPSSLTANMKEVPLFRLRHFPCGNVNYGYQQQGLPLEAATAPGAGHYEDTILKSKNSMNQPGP
Chain of RET (P07949 29-1114): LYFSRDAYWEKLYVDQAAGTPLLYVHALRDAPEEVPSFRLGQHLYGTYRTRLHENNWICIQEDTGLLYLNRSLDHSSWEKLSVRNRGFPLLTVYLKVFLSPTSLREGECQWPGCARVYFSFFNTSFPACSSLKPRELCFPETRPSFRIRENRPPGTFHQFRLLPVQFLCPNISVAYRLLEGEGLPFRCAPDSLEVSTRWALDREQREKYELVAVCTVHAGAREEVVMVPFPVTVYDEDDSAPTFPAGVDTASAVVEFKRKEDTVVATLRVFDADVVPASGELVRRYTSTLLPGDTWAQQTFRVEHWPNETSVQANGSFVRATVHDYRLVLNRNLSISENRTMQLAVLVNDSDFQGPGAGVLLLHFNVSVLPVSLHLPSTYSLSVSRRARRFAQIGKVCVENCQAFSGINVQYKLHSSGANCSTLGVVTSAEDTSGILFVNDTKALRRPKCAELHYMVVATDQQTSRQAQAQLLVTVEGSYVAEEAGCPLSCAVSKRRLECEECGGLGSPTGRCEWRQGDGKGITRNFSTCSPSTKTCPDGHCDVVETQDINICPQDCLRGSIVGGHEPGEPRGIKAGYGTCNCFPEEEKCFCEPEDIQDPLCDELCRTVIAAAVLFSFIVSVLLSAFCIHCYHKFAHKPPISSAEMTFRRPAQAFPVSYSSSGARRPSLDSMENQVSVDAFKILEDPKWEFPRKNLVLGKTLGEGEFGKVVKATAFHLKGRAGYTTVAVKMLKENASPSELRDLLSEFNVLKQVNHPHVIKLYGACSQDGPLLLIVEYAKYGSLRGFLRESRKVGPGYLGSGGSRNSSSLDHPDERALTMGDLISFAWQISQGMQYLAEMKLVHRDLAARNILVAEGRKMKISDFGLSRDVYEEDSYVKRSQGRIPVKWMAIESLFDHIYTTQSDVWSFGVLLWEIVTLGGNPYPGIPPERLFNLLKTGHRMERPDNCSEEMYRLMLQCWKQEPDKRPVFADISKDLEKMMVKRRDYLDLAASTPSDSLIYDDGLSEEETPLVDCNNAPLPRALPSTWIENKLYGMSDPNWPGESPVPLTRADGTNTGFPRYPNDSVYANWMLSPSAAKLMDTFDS

As for `Cc1c2c(cc3[nH]c(-c4c(NC(C)Cc5c(F)c(F)cc(F)c5F)cc[nH]c4=O)nc13)C(=O)N(C1CCN(C)CC1)C2` (stereo not shown) [Compound 24A, 8-Methyl-6-(1-methylpiperidin-4-yl)-2-(2-oxo-4-(1-(2,3,5,6-tetrafluorophenyl)propan-2-ylamino)-1,2-dihydropyridin-3-yl)-6,7-dihydroimidazo[4,5-f]isoindol-5(3H)-one], the IC50 turned out to be 2.37 nM in [1], 14.6 nM in [2], 11.1 nM in data set [3] and 5.99 nM in data set [4].

In the case of `CC(Cc1c(F)c(F)cc(F)c1F)Nc1cc[nH]c(=O)c1-c1nc2cc3c(cc2[nH]1)C(=O)N(C)C3=O` (stereo not shown) [Compound 41, 2-(4-(1-(2,3,5,6-Tetrafluorophenyl)propan-2-ylamino)-2-oxo-1,2-dihydropyridin-3-yl)-6-methylimidazo[4,5-f]isoindole-5,7(1H,6H)-dione], the pIC50 was 8.30 in data set [1], under 5.00 in data set [2], under 5.00 in data set [3] and under 5.00 in data set [4]. Moreover, the half-inhibitory concentration (IC50) in data set [1] is 4.53 nM; in [2], over 10000 nM; in data set [3] it was over 10000 nM; in data set [4], over 10000 nM.

For `CC(Cc1c(F)c(F)cc(F)c1F)Nc1cc[nH]c(=O)c1-c1nc2cc3c(cc2n1C)C(=O)N(C)C3` (stereo not drawn) [Compound 43a, Cis-1,6-Dimethyl-2(2-oxo-4-(1-(2,3,5,6-tetrafluorophenyl)propan-2-ylamino)-1,2-dihydropyridin-3-yl)-6,7-dihydroimidazo[4,5-J]isoindol-5(1H)-one], the pIC50 in data set [1] is 5.95; in [2], under 5.00; in [3], under 5.00; in data set [4] it was 5.19. The IC50 is 1200 nM in data set [1], over 10000 nM in data set [2], over 10000 nM in data set [3] and 6510 nM in [4].

On to `CC(Cc1cc(F)ccc1F)Nc1cc[nH]c(=O)c1-c1nc2cc3c(cc2[nH]1)CNC3=O` (stereo not shown) [Compound 53], for which the microsomal CLint at 0.5 μM amounted to 25.3 µL/min/mg in data set [5] (pH 7.4, Human LM-P1 CL (ul/min/mg)) and 78 µL/min/mg in data set [9] (pH 7.4, Rat LM-P1 CL (ul/min/mg)). In addition, the half-life at 0.5 μM turned out to be 27.4 min in [5] (pH 7.4, Human LM-P1 Half-life (min)) and 8.68 min in data set [9] (pH 7.4). The “Papp (10−6 cm/sec) A to B” value in [6] (10 μM, apical pH 6.5, 2 h) is 0.76 10−6 cm/sec. Also, in [6] (10 μM, basolateral pH 7.4, 2 h), the “Papp (10−6 cm/sec) B to A” value is 7.41 10−6 cm/sec. The “Efflux Ratio” value in data set [6] (Caco-2) is given as 10.1. For the same compound, the efflux ratio at 2 h, 10 μM in data set [7] (Caco-2, Caco-2) is 6.6. Moreover, the Papp A→B at 2 h, 10 μM in data set [7] (Caco-2, pH 6.5, 10 μM, apical pH 6.5, 2 h) is 1.25 ×10⁻⁶ cm/s. The compound also showed an apparent permeability from basolateral to apical (Papp B→A) at 2 h, 10 μM in data set [7] (Caco-2, pH 7.4, 10 μM, basolateral pH 7.4, 2 h) of 8.24 ×10⁻⁶ cm/s. In addition, the 50% inhibitory concentration (IC50) came to 1.88 nM in data set [1], 34.1 nM in [2], 16.9 nM in data set [3] and 7.81 nM in data set [4]. For the same compound, in [8] (10 mg/kg I.V.), the “IV_AUC0-1440 Rat 10 mpk” value came out at 531 µg·min/mL. Further, the “PO_AUC0-1440 Rat 10 mpk” value in data set [8] (10 mg/kg P.O.) came out at 2.13 µg·min/mL. Moreover, the bioavailability in [8] (male, Sprague-Dawley, plasma, po, 10 mg/kg P.O., read-out: Rat F %) came out at 0.402%.
